Experimental data reported in PubChem BioAssay AID248 (DTP/NCI, 2004).
“And” between values parts separate entries of the source, which are not always exact repeats. Equal entries are not always repeated. Toxic doses and inconclusive results are not listed. Rule as the data show it: active = T/C of 150% or more; inactive = T/C below 125%.

Test system: L1210 leukemia ip in BDF1 mice, survival T/C
Test: NCI In Vivo Anticancer Drug Screen. Data for tumor model L1210 Leukemia (intraperitoneal) in B6D2F1 (BDF1) mice
Conditions: endpoint: mean survival time, higher = longer survival
Procedure, shortened: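 Read-out is survival time, reported as the treated-group measurement over the vehicle-control measurement.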

[1] = dose: 400.0 mg/kg/injection, schedule: Q01DX001 (ip), vehicle: carboxymethylcellulose (CMC)
[2] = dose: 100.0 mg/kg/injection, schedule: Q01DX009 (ip), vehicle: saline with Tween-80
[3] = dose: 200.0 mg/kg/injection, schedule: Q01DX009 (ip), vehicle: saline with Tween-80
[4] = dose: 400.0 mg/kg/injection, schedule: Q01DX009 (ip), vehicle: saline with Tween-80
[5] = dose: 100.0 mg/kg/injection, schedule: Q04DX003 (ip), vehicle: Klucel (hydroxypropylcellulose) (HPC)
[6] = dose: 200.0 mg/kg/injection, schedule: Q04DX003 (ip), vehicle: Klucel (hydroxypropylcellulose) (HPC)
[7] = dose: 100.0 mg/kg/injection, schedule: Q04DX003 (ip), vehicle: saline
[8] = dose: 200.0 mg/kg/injection, schedule: Q04DX003 (ip), vehicle: saline
[9] = dose: 400.0 mg/kg/injection, schedule: Q04DX003 (ip), vehicle: saline
[10] = dose: 100.0 mg/kg/injection, schedule: Q04DX002 (ip), vehicle: Klucel (hydroxypropylcellulose) (HPC)
[11] = dose: 200.0 mg/kg/injection, schedule: Q04DX002 (ip), vehicle: Klucel (hydroxypropylcellulose) (HPC)
[12] = dose: 400.0 mg/kg/injection, schedule: Q04DX002 (ip), vehicle: Klucel (hydroxypropylcellulose) (HPC)
[13] = dose: 100.0 mg/kg/injection, schedule: Q01DX009 (ip), vehicle: Klucel (hydroxypropylcellulose) (HPC)
[14] = dose: 200.0 mg/kg/injection, schedule: Q01DX009 (ip), vehicle: Klucel (hydroxypropylcellulose) (HPC)
[15] = dose: 50.0 mg/kg/injection, schedule: Q01DX001 (ip), vehicle: saline
[16] = dose: 100.0 mg/kg/injection, schedule: Q01DX001 (ip), vehicle: saline
[17] = dose: 200.0 mg/kg/injection, schedule: Q01DX001 (ip), vehicle: saline
[18] = dose: 400.0 mg/kg/injection, schedule: Q01DX001 (ip), vehicle: saline

Measured: T/C

Nc1cc2c(cc1[N+](=O)[O-])-c1ccc([N+](=O)[O-])cc1C2=O
inactive: dose: 50.0 mg/kg/injection, schedule: Q01DX001 (ip), vehicle: carboxymethylcellulose (CMC) 98 % of control | dose: 100.0 mg/kg/injection, schedule: Q01DX001 (ip), vehicle: carboxymethylcellulose (CMC) 113 % of control | dose: 200.0 mg/kg/injection, schedule: Q01DX001 (ip), vehicle: carboxymethylcellulose (CMC) 98 % of control | [1] 109 % of control

O=[N+]([O-])c1ccc2c([N+](=O)[O-])ccc3c2c1CC3
inactive: [2] 94 % of control | [3] 90 % of control | [4] 92 % of control

COc1ccc(NC(=O)COc2cccc(Cl)c2)cc1S(=O)(=O)F
inactive: dose: 25.0 mg/kg/injection, schedule: Q04DX003 (ip), vehicle: gum acacia 98 % of control | dose: 50.0 mg/kg/injection, schedule: Q04DX003 (ip), vehicle: gum acacia 95 % of control | dose: 100.0 mg/kg/injection, schedule: Q04DX003 (ip), vehicle: gum acacia 101 % of control | dose: 200.0 mg/kg/injection, schedule: Q04DX003 (ip), vehicle: gum acacia 95 % of control | dose: 400.0 mg/kg/injection, schedule: Q04DX003 (ip), vehicle: gum acacia 92 % of control

O=C1c2ccccc2C(=O)N1CCOc1ccc([N+](=O)[O-])cc1Cl
inactive: dose: 50.0 mg/kg/injection, schedule: Q04DX003 (ip), vehicle: Klucel (hydroxypropylcellulose) (HPC) 102 % of control | [5] 101 % of control | [6] 100 % of control

Cc1ccc(S(=O)(=O)OCCOCCOc2ccc(C(C)(C)CC(C)(C)C)cc2)cc1
inactive: dose: 100.0 mg/kg/injection, schedule: Q01DX001 (ip), vehicle: acetone 97 % of control | [7] 98 % of control | dose: 200.0 mg/kg/injection, schedule: Q01DX001 (ip), vehicle: acetone 89 % of control | [8] 92 % of control | dose: 400.0 mg/kg/injection, schedule: Q01DX001 (ip), vehicle: acetone 87 % of control | [9] 91 % of control

COC(=O)/C=C(\C)Nc1ccc(C(=O)C2CCCCC2)cc1
inactive: dose: 100.0 mg/kg/injection, schedule: Q01DX001 (ip), vehicle: other 90 % of control | dose: 200.0 mg/kg/injection, schedule: Q01DX001 (ip), vehicle: other 95 % of control | dose: 400.0 mg/kg/injection, schedule: Q01DX001 (ip), vehicle: other 96 % of control

CCN(CC#CCOc1ccc(Cl)cc1Cl)c1ccccc1
inactive: [10] 109 % of control | [11] 98 % of control | [12] 102 % of control

C=C(CCC(C(=O)O)C1CCC2(C)C3=C(CCC12C)C1(C)CCC(O)C(C)(C)C1CC3)C(C)C (stereo unspecified)
inactive: [2] 91 % of control | [3] 87 % of control | [4] 94 % of control

CCOC(=O)/C(C#N)=C(\CC)c1ccccc1
inactive: [13] 98 % of control | [14] 101 % of control

CCCCNC(=O)c1ccccc1N
inactive: dose: 50.0 mg/kg/injection, schedule: Q04DX003 (ip), vehicle: other 103 % of control | dose: 100.0 mg/kg/injection, schedule: Q04DX003 (ip), vehicle: other 95 % of control and 101 % of control | dose: 200.0 mg/kg/injection, schedule: Q04DX003 (ip), vehicle: other 92 % of control | dose: 400.0 mg/kg/injection, schedule: Q04DX003 (ip), vehicle: other 90 % of control

Cc1cc(C)c(CCN(C)C)c(C)c1C
inactive: [15] 103 % of control | [16] 101 % of control | [17] 101 % of control

CC(=O)OC1c2ccccc2C2c3ccccc3C1C2Cl (stereo unspecified)
inactive: dose: 176.0 mg/kg/injection, schedule: Q01DX001 (ip), vehicle: carboxymethylcellulose (CMC) 91 % of control | dose: 264.0 mg/kg/injection, schedule: Q01DX001 (ip), vehicle: carboxymethylcellulose (CMC) 95 % of control | [1] 92 % of control | dose: 600.0 mg/kg/injection, schedule: Q01DX001 (ip), vehicle: carboxymethylcellulose (CMC) 89 % of control

COc1ccc(NC(=O)Nc2ccc(F)cc2)c(OC)c1
inactive: [13] 91 % of control | [5] 100 % of control | [14] 100 % of control | [6] 91 % of control | dose: 400.0 mg/kg/injection, schedule: Q01DX009 (ip), vehicle: Klucel (hydroxypropylcellulose) (HPC) 96 % of control | dose: 400.0 mg/kg/injection, schedule: Q04DX003 (ip), vehicle: Klucel (hydroxypropylcellulose) (HPC) 100 % of control

C(=N\N1CCN(/N=C/c2ccc(-c3ccccc3)cc2)CC1)/c1ccc(-c2ccccc2)cc1
inactive: [16] 94 % of control | [17] 97 % of control | [18] 94 % of control

CCC(=O)c1ccc(OC(C)=O)c(OC(C)=O)c1
inactive: [15] 101 % of control | [16] 101 % of control | [7] 100 % of control | [17] 109 % of control | [8] 97 % of control | [18] 97 % of control | [9] 100 % of control

COc1ccc(/C(=N/Nc2ccccc2)C(C)C(O)(C(F)(F)F)C(F)(F)F)cc1 (stereo unspecified)
inactive: dose: 50.0 mg/kg/injection, schedule: Q01DX009 (ip), vehicle: Klucel (hydroxypropylcellulose) (HPC) 91 % of control | [13] 92 % of control | [5] 98 % of control | [14] 89 % of control | [6] 90 % of control

CC(=O)C(c1ccc(N(C)C)cc1)c1ccc(N(C)C)cc1
inactive: [15] 101 % of control | [16] 101 % of control | [17] 101 % of control | [18] 101 % of control

CCOC(=O)c1ccc(Nc2sc(C(=O)c3ccc(-c4ccccc4)cc3)c(N)c2C#N)cc1
inactive: dose: 100.0 mg/kg/injection, schedule: Q04DX002 (ip), vehicle: saline with Tween-80 92 % of control | dose: 200.0 mg/kg/injection, schedule: Q04DX002 (ip), vehicle: saline with Tween-80 86 % of control | dose: 400.0 mg/kg/injection, schedule: Q04DX002 (ip), vehicle: saline with Tween-80 95 % of control

Cc1n[n+]([O-])c(C)cc1Cl
inactive: [10] 104 % of control | [11] 104 % of control | [12] 119 % of control

Cc1ccc(C2Nc3ccccc3S(=O)(=O)C2c2ccccc2)cc1 (stereo unspecified)
inactive: dose: 100.0 mg/kg/injection, schedule: Q01DX001 (ip), vehicle: Klucel (hydroxypropylcellulose) (HPC) 95 % of control | dose: 200.0 mg/kg/injection, schedule: Q01DX001 (ip), vehicle: Klucel (hydroxypropylcellulose) (HPC) 106 % of control | dose: 400.0 mg/kg/injection, schedule: Q01DX001 (ip), vehicle: Klucel (hydroxypropylcellulose) (HPC) 101 % of control

CC/C(=N/N=C(N)N)c1ccc(NC(=O)Nc2ccc(/C(CC)=N/N=C(N)N)cc2)cc1
inactive: dose: 2.5 mg/kg/injection, schedule: Q01DX009 (ip), vehicle: saline 103 % of control | dose: 5.0 mg/kg/injection, schedule: Q01DX009 (ip), vehicle: saline 121 % of control | dose: 10.0 mg/kg/injection, schedule: Q01DX009 (ip), vehicle: saline 107 % of control

O=C(Nc1ccccc1)/C(Cl)=C/O
inactive: [10] 91 % of control | [11] 94 % of control | [12] 97 % of control

CC1CC2CCC1C2O (stereo unspecified)
inactive: dose: 37.5 mg/kg/injection, schedule: Q04DX003 (ip), vehicle: saline 100 % of control | dose: 75.0 mg/kg/injection, schedule: Q04DX003 (ip), vehicle: saline 97 % of control | dose: 150.0 mg/kg/injection, schedule: Q04DX003 (ip), vehicle: saline 90 % of control
